Results published in ChEMBL document CHEMBL5131484, “Design and synthesis of adamantane-1-carbonyl thiourea derivatives as potent and selective inhibitors of h-P2X4 and h-P2X7 receptors: An Emerging therapeutic tool for treatment of inflammation and neurological disorders” (Eur J Med Chem, 2022).

Experiments:
[1] = Cytotoxicity against human 1321N1 cells assessed as reduction in cell viability at 50 uM incubated for 24 hrs by MTT assay relative to control; type: functional
[2] = Cytotoxicity against human HEK293 cells assessed as reduction in cell viability at 50 uM incubated for 24 hrs by MTT assay relative to control; type: toxicity, cell-based; conditions: read-out: INH
[3] = system: HeLa; assay: Cytotoxicity against human HeLa cells assessed as reduction in cell viability at 50 uM incubated for 24 hrs by MTT assay relative to control; type: functional
[4] = target: T1, P2X purinoceptor 2 (Homo sapiens) (UniProt Q9UBL9); assay: Antagonist activity at human P2X2 receptor expressed in human 1321N1 cells assessed as reduction in intracellular Ca2+ influx incubated for 30 mins by Fura-2 AM based fluorescence assay relative to control; type: cell-based
T1 sequence (whole entry): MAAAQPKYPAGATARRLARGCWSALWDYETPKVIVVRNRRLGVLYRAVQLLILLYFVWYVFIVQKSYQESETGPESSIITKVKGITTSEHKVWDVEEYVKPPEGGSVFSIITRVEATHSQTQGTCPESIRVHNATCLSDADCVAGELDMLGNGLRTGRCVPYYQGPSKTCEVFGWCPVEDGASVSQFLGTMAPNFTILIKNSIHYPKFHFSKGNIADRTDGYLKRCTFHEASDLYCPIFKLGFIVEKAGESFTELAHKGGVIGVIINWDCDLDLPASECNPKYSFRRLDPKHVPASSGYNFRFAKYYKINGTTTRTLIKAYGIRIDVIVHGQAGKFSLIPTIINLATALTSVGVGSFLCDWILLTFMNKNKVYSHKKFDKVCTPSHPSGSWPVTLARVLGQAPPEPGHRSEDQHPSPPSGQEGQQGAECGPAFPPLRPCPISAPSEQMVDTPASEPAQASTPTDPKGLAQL

[5] = target: T2, P2X purinoceptor 4 (Homo sapiens) (UniProt Q99571); assay: Antagonist activity at human P2X4 receptor expressed in human 1321N1 cells assessed as reduction in intracellular Ca2+ influx incubated for 30 mins by Fura-2 AM based fluorescence assay relative to control; type: cell-based
T2 sequence (whole entry): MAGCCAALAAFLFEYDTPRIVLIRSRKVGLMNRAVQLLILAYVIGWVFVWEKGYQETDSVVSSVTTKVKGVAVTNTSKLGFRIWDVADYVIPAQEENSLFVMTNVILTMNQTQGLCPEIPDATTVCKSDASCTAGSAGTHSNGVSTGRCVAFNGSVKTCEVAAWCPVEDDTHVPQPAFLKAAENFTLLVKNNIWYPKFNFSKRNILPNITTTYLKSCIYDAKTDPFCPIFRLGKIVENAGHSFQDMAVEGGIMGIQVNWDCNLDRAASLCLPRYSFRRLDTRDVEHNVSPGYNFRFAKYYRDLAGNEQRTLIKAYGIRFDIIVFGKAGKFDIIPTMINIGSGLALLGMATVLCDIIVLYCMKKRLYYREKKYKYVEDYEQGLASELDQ

[6] = target: T3, P2X purinoceptor 5 (Homo sapiens, UniProt Q93086); assay: Antagonist activity at human P2X5 receptor expressed in human 1321N1 cells assessed as reduction in intracellular Ca2+ influx incubated for 30 mins by Fura-2 AM based fluorescence assay relative to control; type: cell-based
[7] = target: T3, P2X purinoceptor 5; assay: Antagonist activity at human P2X5 receptor expressed in human 1321N1 cells assessed as reduction in intracellular Ca2+ influx incubated for 30 mins by Fura-2 AM based fluorescence assay; type: cell-based
[8] = target: T4, P2X purinoceptor 7 (Homo sapiens, UniProt Q99572); assay: Antagonist activity at human P2X7 receptor expressed in human 1321N1 cells assessed as reduction in intracellular Ca2+ influx incubated for 30 mins by Fura-2 AM based fluorescence assay; type: cell-based
T4 sequence (Q99572 whole entry): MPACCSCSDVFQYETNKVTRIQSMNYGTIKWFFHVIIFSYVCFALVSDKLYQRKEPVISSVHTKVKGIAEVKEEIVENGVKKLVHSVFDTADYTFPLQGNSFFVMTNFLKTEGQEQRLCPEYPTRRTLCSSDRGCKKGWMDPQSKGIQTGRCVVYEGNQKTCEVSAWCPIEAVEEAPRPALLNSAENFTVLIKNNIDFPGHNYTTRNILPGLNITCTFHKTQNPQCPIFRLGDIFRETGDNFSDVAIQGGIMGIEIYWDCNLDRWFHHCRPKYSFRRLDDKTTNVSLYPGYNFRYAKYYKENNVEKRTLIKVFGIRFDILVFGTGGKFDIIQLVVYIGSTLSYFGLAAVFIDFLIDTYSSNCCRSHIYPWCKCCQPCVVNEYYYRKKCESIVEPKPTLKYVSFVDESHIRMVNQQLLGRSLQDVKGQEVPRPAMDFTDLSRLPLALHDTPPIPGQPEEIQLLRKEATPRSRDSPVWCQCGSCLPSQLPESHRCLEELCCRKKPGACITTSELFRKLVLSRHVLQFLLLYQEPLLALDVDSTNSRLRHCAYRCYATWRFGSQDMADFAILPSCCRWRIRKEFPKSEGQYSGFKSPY

[9] = target: T5, P2X purinoceptor 4 (Homo sapiens, UniProt Q99571); assay: Antagonist activity at human P2X4 receptor expressed in human 1321N1 cells assessed as reduction in intracellular Ca2+ influx incubated for 30 mins by Fura-2 AM based fluorescence assay; type: cell-based
T5 sequence (Q99571 whole entry): T2 sequence (whole entry)

[10] = target: T6, P2X purinoceptor 7 (Homo sapiens) (UniProt Q99572); assay: Antagonist activity at human P2X7 receptor expressed in human 1321N1 cells assessed as reduction in ethidium bromide dye uptake at 20 uM preincubated for 15 mins followed by BzATP addition and measured after 30 mins by Ethidium bromide dye based fluorescence plate reader analysis relative to control; type: cell-based; conditions: filed as antagonist, time 45.0 min
T6 sequence (whole entry): T4 sequence (Q99572 whole entry)

[11] = target: T4, P2X purinoceptor 7; assay: Antagonist activity at human P2X7 receptor expressed in human 1321N1 cells assessed as reduction in ethidium bromide dye uptake preincubated for 15 mins followed by BzATP addition and measured after 30 mins by Ethidium bromide dye based fluorescence plate reader analysis; type: cell-based
[12] = target: T6, P2X purinoceptor 7 (Homo sapiens); assay: Antagonist activity at human P2X7 receptor expressed in human 1321N1 cells assessed as reduction in intracellular Ca2+ influx incubated for 30 mins by Fura-2 AM based fluorescence assay relative to control; type: cell-based

T3 sequence (Q93086 whole entry): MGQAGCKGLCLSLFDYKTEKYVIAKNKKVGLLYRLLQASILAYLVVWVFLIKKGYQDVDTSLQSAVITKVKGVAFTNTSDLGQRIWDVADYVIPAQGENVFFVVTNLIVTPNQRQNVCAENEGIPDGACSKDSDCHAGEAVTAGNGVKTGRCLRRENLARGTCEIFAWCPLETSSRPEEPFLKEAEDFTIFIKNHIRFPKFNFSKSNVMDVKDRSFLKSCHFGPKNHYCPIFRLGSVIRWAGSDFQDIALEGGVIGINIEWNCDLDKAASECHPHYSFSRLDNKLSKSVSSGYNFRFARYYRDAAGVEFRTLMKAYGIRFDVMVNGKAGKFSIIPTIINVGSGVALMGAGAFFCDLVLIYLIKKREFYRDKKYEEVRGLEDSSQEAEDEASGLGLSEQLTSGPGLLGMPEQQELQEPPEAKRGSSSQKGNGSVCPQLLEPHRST

SMILES | inhibition at 50 µM [1] | cytotoxicity at 24 h, 50 µM [2] | inhibition at 50 µM [3] | inhibition [4] | inhibition [5] | inhibition ([6]; filed as antagonist) | IC50 [7] | IC50 [8] | IC50 [9] | Emax [10] | IC50 [11] | inhibition [12] | inhibition [6] | inhibition ([4]; filed as antagonist)
CC(C)c1cc(Br)c(NC(=O)Nc2cccnc2)c(Br)c1 | 20.2% | 2.85% | 9.12% |  |  |  |  |  |  |  |  |  |  | 
O=C(NC(=S)Nc1ccc(Br)cc1)C12CC3CC(CC(C3)C1)C2 | 5.4% | 13.7% | 7.19% | 35% | 21% | 42% |  |  |  |  |  |  |  | 
Cc1ccc(C(=O)Nc2ccc(S(=O)(=O)O)c3cc(S(=O)(=O)O)cc(S(=O)(=O)O)c23)cc1NC(=O)c1cccc(NC(=O)Nc2cccc(C(=O)Nc3cc(C(=O)Nc4ccc(S(=O)(=O)O)c5cc(S(=O)(=O)O)cc(S(=O)(=O)O)c45)ccc3C)c2)c1 [SURAMIN] | 30.6% | 48% | 28.7% |  |  |  |  |  |  |  |  |  |  | 
Cc1ccc(NC(=S)NC(=O)C23CC4CC(CC(C4)C2)C3)c(Br)c1 | 7.29% | 9.46% | 15.4% |  |  |  | 9.04 µM |  |  |  |  |  |  | 
NS(=O)(=O)c1ccccc1NC(=S)NC(=O)C12CC3CC(CC(C3)C1)C2 | 12.9% | 3.77% | 9.5% | 18% |  | 43% |  | 0.699 µM | 4.19 µM | 58% | 0.796 µM |  |  | 
O=C(NC(=S)Nc1cccc(O)c1)C12CC3CC(CC(C3)C1)C2 | 5.67% | 6.95% | 11% | 33% | 36% | 44% |  |  |  |  |  | 19% |  | 
Cc1cc(Br)ccc1NC(=S)NC(=O)C12CC3CC(CC(C3)C1)C2 | 2.2% | 7.02% | 4.1% | 22% | 35% |  |  |  |  |  |  | 18% | 16% | 
O=C(NC(=S)Nc1ccc(O)cc1)C12CC3CC(CC(C3)C1)C2 | 7.21% | 3.02% | 8.66% | 38% | 33% |  |  |  |  | 68% | 1.26 µM |  | 26% | 
O=C(NC(=S)Nc1cc(Cl)c(O)c(Cl)c1)C12CC3CC(CC(C3)C1)C2 | 6.18% | 1.06% | 5.4% |  |  |  | 12.3 µM |  |  |  |  |  |  | 
O=C(NC(=S)Nc1ccccc1O)C12CC3CC(CC(C3)C1)C2 | 10.3% | 4.22% | 8.6% | 33% |  | 41% |  |  |  |  |  |  |  | 
COc1ccc(NC(=S)NC(=O)C23CC4CC(CC(C4)C2)C3)cc1OC | 13.5% | 7.2% | 14.3% |  |  |  | 16.5 µM |  |  |  |  |  |  | 
O=C(NC(=S)Nc1cc([N+](=O)[O-])ccc1Cl)C12CC3CC(CC(C3)C1)C2 | 10.4% | 6.31% | 8.66% |  |  |  |  |  |  |  |  |  | 32% | 
COc1ccc(NC(=S)NC(=O)C23CC4CC(CC(C4)C2)C3)cc1 | 4.56% | 10.6% | 8.01% |  | 32% |  |  |  |  |  |  | 0% | 25% | 
COc1cccc(NC(=S)NC(=O)C23CC4CC(CC(C4)C2)C3)c1 | 6.53% | 13.2% | 7.21% |  | 38% | 45% |  |  |  |  |  | 15% |  | 
O=C(O)C12CC3CC(CC(C3)C1)C2 |  |  |  | 12% | 20% |  |  |  |  |  |  | 11% | 15% | 
O=C(NC(=S)Nc1cc(Br)ccc1Br)C12CC3CC(CC(C3)C1)C2 | 7.43% | 10.7% | 4.15% |  |  |  |  |  | 8.34 µM |  |  | 11% | 16% | 41%
O=C(NC(=S)Nc1cccnc1Cl)C12CC3CC(CC(C3)C1)C2 | 11.4% | 4.95% | 5.21% | 13% |  |  |  |  |  | 63% | 0.155 µM |  | 25% | 
CN(C)CCCNC(=S)NC(=O)C12CC3CC(CC(C3)C1)C2 | 5.45% | 10.4% | 7.21% | 2% | 0% |  |  |  |  |  |  | 10% | 5% | 
O=C(NC(=S)Nc1cc(Br)cc(C(F)(F)F)c1)C12CC3CC(CC(C3)C1)C2 | 5.37% | 6.85% | 11.9% | 5% |  |  |  | 4.02 µM | 4.53 µM |  |  |  | 20% | 
